How the values were obtained:
[1] = system: Mycobacterium tuberculosis; assay: Antimicrobial activity against Mycobacterium tuberculosis H37Rv at < 6.25 ug/ml; assay type: functional
[2] = system: Mycobacterium tuberculosis; assay: Antimicrobial activity against Mycobacterium tuberculosis H37Rv; assay type: functional

SMILES | inhibition (INH) [1] | MIC [2]
CC1=NN(c2ccc3c(c2)Nc2ccccc2S3)C2N=C(S)NC(c3ccc(Cl)cc3)C12 (stereo unspecified) | 74% | > 6.25 µg/mL
CC1=NN(c2ccc3c(c2)Nc2ccccc2S3)C2N=C(S)NC(c3ccc(O)cc3)C12 (stereo unspecified) | 68% | > 6.25 µg/mL
COc1ccc(C2NC(S)=NC3C2C(C)=NN3c2ccc3c(c2)Nc2ccccc2S3)cc1 (stereo unspecified) | 63% | > 6.25 µg/mL
CC1=NN(c2ccc3c(c2)Nc2ccccc2S3)C2N=C(S)NC(c3ccccc3)C12 (stereo unspecified) | 75% | > 6.25 µg/mL
CC1=NN(c2ccc3c(c2)Nc2ccccc2S3)C2N=C(S)NC(c3ccccc3Cl)C12 (stereo unspecified) | 91% | < 6.25 µg/mL
CC1=NN(c2ccc3c(c2)Nc2ccccc2S3)C2N=C(S)NC(c3ccccc3[N+](=O)[O-])C12 (stereo unspecified) | 96% | < 6.25 µg/mL
CC1=NN(c2ccc3c(c2)Nc2ccccc2S3)C2N=C(S)NC(c3ccc([N+](=O)[O-])cc3)C12 (stereo unspecified) | 54% | > 6.25 µg/mL
CC1=NN(c2ccc3c(c2)Nc2ccccc2S3)C2N=C(S)NC(c3ccccc3O)C12 (stereo unspecified) | 93% | < 6.25 µg/mL

— ChEMBL document CHEMBL3045226, “Synthesis and anti-tubercular evaluation of some novel pyrazolo[3,4-d]pyrimidine derivatives” (2012)
